For this assay, the target named is Factor IXa (Homo sapiens, UniProt P00740). The assay can be described thus: Determination of inhibitory activity against Factor IXa (cleavage of fluorescent peptide substrate). In kind it is biochemical. As to conditions: cleavage of fluorescent peptide CH3SO2-D-CHG-Gly-Arg-AFC, release of AFC; read-out: FIXa IC50. The method in brief: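 Factor IXa activity followed via cleavage of CH3SO2-D-CHG-Gly-Arg-AFC, releasing AFC. Fluorescence read at excitation 405 nm, emission 510 nm.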

The structures appear in SMILES notation.

In US9708308B2, “Factor IXa inhibitors” (Merck Sharp & Dohme Corp., priority 2012, dated 2017) one finds IC50 data, which are given here for ten molecules.

Chain of Factor IXa (P00740 227-461 limits assumed): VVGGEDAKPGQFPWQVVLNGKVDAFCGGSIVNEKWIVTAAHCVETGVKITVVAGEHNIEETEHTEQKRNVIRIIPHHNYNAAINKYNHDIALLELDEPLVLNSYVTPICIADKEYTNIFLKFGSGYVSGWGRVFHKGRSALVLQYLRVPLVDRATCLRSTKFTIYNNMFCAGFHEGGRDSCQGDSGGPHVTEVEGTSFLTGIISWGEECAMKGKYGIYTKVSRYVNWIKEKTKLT
Chain of Factor IXa (P00740 47-191 partner limits assumed): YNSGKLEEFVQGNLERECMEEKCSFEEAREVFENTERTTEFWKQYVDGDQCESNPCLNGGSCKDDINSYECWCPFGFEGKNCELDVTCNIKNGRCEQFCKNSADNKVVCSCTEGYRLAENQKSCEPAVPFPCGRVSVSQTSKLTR

In the case of `C[C@](O)(C(=O)Nc1ccc2c(N)noc2c1)[C@H]1OCCN(c2ccn(-c3ccnnc3)n2)C1=O` [Example 37, (R)—N-(3-aminobenzo[d]isoxazol-6-yl)-2-hydroxy-2-((R)-3-oxo-4-(1-(pyridazin-4-yl)-1H-pyrazol-3-yl)morpholin-2-yl)propanamide], the IC50 was 4.36 nM.
As for `C[C@](O)(C(=O)Nc1ccc2c(N)noc2c1)[C@H]1OCCN(c2ccc(-c3ccnc(C(F)(F)F)c3)o2)C1=O` [Example 62, (R)—N-(3-aminobenzo[d]isoxazol-6-yl)-2-hydroxy-2-((R)-3-oxo-4-(5-(2-(trifluoromethyl)pyridin-4-yl)furan-2-yl)morpholin-2-yl)propanamide], the figure is 43.5 nM; as for `Cc1nn(C)c2nc(N3CCO[C@H]([C@@](C)(O)C(=O)Nc4ccc5c(N)noc5c4)C3=O)ccc12` [Example 70, (R)—N-(3-aminobenzo[d]isoxazol-6-yl)-2-((R)-4-(1,3-dimethyl-1H-pyrazolo[3,4-b]pyridin-6-yl)-3-oxomorpholin-2-yl)-2-hydroxypropanamide], 195 nM; as for `C[C@](O)(C(=O)Nc1ccc2c(N)noc2c1)[C@H]1OCCN(c2nn(-c3ccnc(C(F)(F)F)c3)cc2F)C1=O` [Example 30, (R)—N-(3-aminobenzo[d]isoxazol-6-yl)-2-((R)-4-(4-fluoro-1-(2-(trifluoromethyl)pyridin-4-yl)-1H-pyrazol-3-yl)-3-oxomorpholin-2-yl)-2-hydroxypropanamide], 36.2 nM.
As for `C[C@]1([C@@H](O)C(=O)Nc2ccc3c(N)noc3c2)OCCN(c2ccn(-c3ccc(C(F)(F)F)nc3)n2)C1=O` [Example 86, (R)—N-(3-aminobenzo[d]isoxazol-6-yl)-2-hydroxy-2-((R)-2-methyl-3-oxo-4-(1-(6-(trifluoromethyl)pyridin-3-yl)-1H-pyrazol-3-yl)morpholin-2-yl)acetamide], the figure is 414 nM.
Consider `C[C@@H]1CN(c2ccn(-c3cnnc(C#N)c3)n2)C(=O)[C@@H]([C@@H](O)C(=O)Nc2ccc3c(N)noc3c2)O1` [Example 154, (R)—N-(3-Aminobenzo[d]isoxazol-6-yl)-2-((2R,6R)-4-(1-(6-cyanopyridazin-4-yl)-1H-pyrazol-3-yl)-6-methyl-3-oxomorpholin-2-yl)-2-hydroxyacetamide], for which the IC50 is 1.98 nM.
Then `C[C@]1([C@@H](O)C(=O)Nc2ccc3c(N)noc3c2)OCCN(c2ccn(-c3ccc(=O)n(C(F)F)c3)n2)C1=O` [Example 76, (R)—N-(3-Aminobenzo[d]isoxazol-6-yl)-2-((R)-4-(1-(1-(difluoromethyl)-6-oxo-1,6-dihydropyridin-3-yl)-1H-pyrazol-3-yl)-2-methyl-3-oxomorpholin-2-yl)-2-hydroxyacetamide], with 11.1 nM; and `C[C@@H]1CN(c2ccn(-c3ccncc3)n2)C(=O)[C@@H]([C@@H](O)C(=O)Nc2ccc3c(N)noc3c2)O1` [Example 166, (R)—N-(3-aminobenzo[d]isoxazol-6-yl)-2-hydroxy-2-((2R,6R)-6-methyl-3-oxo-4-(1-(pyridin-4-yl)-1H-pyrazol-3-yl)morpholin-2-yl)acetamide], with 3.37 nM; and `C[C@]1([C@@H](O)C(=O)Nc2ccc3c(N)noc3c2)OCCN(c2ccn(-c3ccnc(C(F)(F)F)c3)n2)C1=O` [Example 94, (R)—N-(3-aminobenzo[d]isoxazol-6-yl)-2-hydroxy-2-((R)-2-methyl-3-oxo-4-(1-(2-(trifluoromethyl)pyridin-4-yl)-1H-pyrazol-3-yl)morpholin-2-yl)acetamide], with 12.9 nM.
As for `C[C@](O)(C(=O)Nc1ccc2c(N)noc2c1)[C@H]1OCCN(c2ccn(-c3cnnc(C#N)c3)n2)C1=O` [Example 45, (R)—N-(3-aminobenzo[d]isoxazol-6-yl)-2-((R)-4-(1-(6-cyanopyridazin-4-yl)-1H-pyrazol-3-yl)-3-oxomorpholin-2-yl)-2-hydroxypropanamide], the figure is 2.6 nM.
